Source: patent US20140066620A1, “PYRIMIDINE SUBSTITUTED PURINE DERIVATIVES” (VERASTEM, INC., priority 2007, published 2014)

Assays:
[1] = molecular target: T1, Recombinant PI3K p110α/p85 (Homo sapiens, UniProt P42336); test: PI3K Assay (radiometric lipid kinase assay); type: biochemical; conditions: p110α/p85, 2 μM ATP, 1 hour at RT; read-out: IC50 (PI3Kα)
T1 construct: made in house
Procedure: Recombinant PI3K p110α/p85 was prepared in-house. Phosphatidylinositol (PtdIns), phosphotidylserine (PtdSer) and all other unspecified chemicals were purchased from Sigma-Aldrich. [γ^33P]ATP and Optiphase scintillant were obtained from Perkin Elmer.
Assays were performed in a final assay volume of 25 μL in 384-well Maxisorp plates (Nunc). […] Maxisorp plates were coated with 20 μL/well of a 1:1 mixture of PtdIns and PtdSer [0.1 mg/mL each dissolved in chloroform:ethanol (3:7)] and left overnight in a fume hood at room temperature (RT) to dry.
The reaction was incubated for 1 hour at RT and terminated with 30 μL/well of 50 mM EDTA solution. The plate was then washed twice with TBS, dried, and added with 30 μL/well of scintillant before it was counted in a MicroBeta Trilux.

PC3 cells = test: Cell-based proliferation assay, PC3; conditions: Homo sapiens, PC-3, 96 h treatment, Celltiter96 Aqueous One Solution
Procedure: (§1) Human cancer cell lines PC3 and DU145 (human prostate cancer cell lines), were obtained from ATCC. They were cultured in the media according to the ATCC work instructions. PC3 and DU145 cells were seeded at 1,000 cells per well in 96-well plates, respectively. The plates were incubated at 37° C., 5% CO2, for 24 h. Cells were treated with compounds at various concentrations for 96 h. Cell proliferation was then quantified using Celltiter96 Aqueous One Solution Cell Proliferation Assay from Promega (Madison Wis.). Dose response curves were plotted to determine IC50 values for the compounds using XL-fit (ID Business Solution, Emeryville, Calif.).

Truncated mTOR kinase = molecular target: T2, Truncated mTOR kinase (Homo sapiens, UniProt P42345); test: mTOR Assay (radiometric phosphorylation of 4eBP1); type: biochemical; conditions: 4eBP1 substrate, 10 μM ATP, 1 hour at room temperature
T2 construct: Truncated mTOR kinase and His-tagged 4eBP1 were produced in-house
T2 sequence (P42345 2156-2549 limits assumed): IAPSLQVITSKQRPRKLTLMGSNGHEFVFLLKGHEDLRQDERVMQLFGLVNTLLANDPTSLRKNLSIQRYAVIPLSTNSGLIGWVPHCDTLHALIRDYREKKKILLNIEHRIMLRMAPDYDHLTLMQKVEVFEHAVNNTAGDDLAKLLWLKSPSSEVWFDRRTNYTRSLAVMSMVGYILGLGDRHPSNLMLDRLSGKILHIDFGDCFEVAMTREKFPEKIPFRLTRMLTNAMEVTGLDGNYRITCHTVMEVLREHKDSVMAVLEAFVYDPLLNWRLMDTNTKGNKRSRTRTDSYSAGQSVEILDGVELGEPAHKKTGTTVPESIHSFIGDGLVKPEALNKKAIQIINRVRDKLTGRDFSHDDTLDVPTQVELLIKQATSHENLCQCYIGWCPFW
Procedure: Truncated mTOR kinase and His-tagged 4eBP1 were produced in-house. [γ^33P]-ATP was purchased from Amersham (GE Healthcare). All chemicals, unless otherwise stated, were from Sigma-Aldrich.
Phosphorylation assays were initially performed in a final volume of 20 μL in 384-well polypropylene plate (Greiner). […] The reaction was initiated by adding 10 μL/well of 20 μM ATP solution (final assay concentration 10 μM ATP and 0.4 μCi/well of [γhu 33P]-ATP). After 1 hour incubation at room temperature, the reaction was terminated with 40 μL/well of 20 mM EDTA/1 mM ATP solution.
50 μL/well of the stopped reaction mix was then transferred to 384-well MultiScreenHTS-PH filter plate (Millipore) pre-added with 50 μL/well of 1% phosphoric acid. The plate was washed 4 times with 120 μL/well of 0.5% phosphoric acid via vacuum filtration. Finally, 10 μL/well of Optiphase™ SuperMix liquid scintillation cocktail (Perkin Elmer) was added. After minimum 1 hour of incubation, counting was performed in a Wallac MicroBeta TriLux scintillation counter using coincidence counting mode with crosstalk correction.

[2] = system: human breast cancer cell lines; conditions: two of eight human breast cancer cell lines, resistant; cited from earlier work
DU145 cells = test: Cell-based proliferation assay, DU145; conditions: Homo sapiens, DU-145, 96 h treatment, Celltiter96 Aqueous One Solution
Procedure: as §1

human cancer cell lines = conditions: different human cancer cell lines in vitro and xenograft models in vivo; read-out: IC50 (anti-neoplastic activity); cited from earlier work

T1 sequence (P42336 whole entry): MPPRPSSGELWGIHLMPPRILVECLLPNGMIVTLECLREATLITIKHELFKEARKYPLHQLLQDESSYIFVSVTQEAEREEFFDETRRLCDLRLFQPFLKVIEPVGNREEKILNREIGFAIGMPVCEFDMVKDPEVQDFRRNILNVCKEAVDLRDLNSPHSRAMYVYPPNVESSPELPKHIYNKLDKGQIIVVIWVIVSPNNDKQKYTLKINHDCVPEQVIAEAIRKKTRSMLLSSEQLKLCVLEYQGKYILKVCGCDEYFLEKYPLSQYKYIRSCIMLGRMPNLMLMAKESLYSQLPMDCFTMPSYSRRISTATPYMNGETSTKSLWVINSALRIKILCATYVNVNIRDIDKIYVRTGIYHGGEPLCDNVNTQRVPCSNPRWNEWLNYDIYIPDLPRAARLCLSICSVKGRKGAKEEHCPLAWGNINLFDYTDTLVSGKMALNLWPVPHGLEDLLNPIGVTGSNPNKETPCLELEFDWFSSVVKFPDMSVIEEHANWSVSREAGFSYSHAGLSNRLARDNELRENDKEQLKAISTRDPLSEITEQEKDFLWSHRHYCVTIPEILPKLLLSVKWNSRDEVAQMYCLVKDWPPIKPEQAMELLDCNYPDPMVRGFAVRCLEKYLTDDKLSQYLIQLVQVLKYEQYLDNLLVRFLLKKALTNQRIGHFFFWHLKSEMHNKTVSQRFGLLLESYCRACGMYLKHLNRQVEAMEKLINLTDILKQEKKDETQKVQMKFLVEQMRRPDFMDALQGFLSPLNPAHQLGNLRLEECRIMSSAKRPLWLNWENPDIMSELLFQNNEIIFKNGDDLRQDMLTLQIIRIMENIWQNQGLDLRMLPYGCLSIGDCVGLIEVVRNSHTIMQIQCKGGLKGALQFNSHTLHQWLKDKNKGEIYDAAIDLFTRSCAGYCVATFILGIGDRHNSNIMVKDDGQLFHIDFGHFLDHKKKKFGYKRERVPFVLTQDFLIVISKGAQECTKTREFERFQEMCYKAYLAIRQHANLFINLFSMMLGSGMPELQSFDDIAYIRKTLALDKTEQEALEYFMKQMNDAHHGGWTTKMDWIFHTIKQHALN
T1 sequence (P27986 whole entry partner): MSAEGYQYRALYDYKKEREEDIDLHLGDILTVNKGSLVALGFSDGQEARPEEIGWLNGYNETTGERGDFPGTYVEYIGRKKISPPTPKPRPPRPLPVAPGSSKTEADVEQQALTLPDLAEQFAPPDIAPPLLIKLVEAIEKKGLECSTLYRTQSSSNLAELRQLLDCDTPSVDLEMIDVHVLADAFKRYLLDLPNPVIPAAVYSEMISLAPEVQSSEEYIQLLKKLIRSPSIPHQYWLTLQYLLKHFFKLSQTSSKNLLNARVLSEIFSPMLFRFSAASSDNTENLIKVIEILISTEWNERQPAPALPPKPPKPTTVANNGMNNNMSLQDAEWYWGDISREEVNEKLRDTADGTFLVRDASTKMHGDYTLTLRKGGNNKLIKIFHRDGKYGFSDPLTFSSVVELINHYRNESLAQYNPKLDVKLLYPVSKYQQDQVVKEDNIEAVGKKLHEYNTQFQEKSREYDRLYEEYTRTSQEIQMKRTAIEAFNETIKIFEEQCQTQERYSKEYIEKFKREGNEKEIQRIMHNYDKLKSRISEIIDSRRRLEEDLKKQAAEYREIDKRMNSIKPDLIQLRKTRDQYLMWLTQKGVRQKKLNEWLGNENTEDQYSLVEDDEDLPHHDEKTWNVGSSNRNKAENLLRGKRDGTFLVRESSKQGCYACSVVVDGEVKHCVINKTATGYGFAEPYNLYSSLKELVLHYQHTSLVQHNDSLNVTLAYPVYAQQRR

Row | IC50 [1] [µM] | IC50 (Truncated mTOR kinase) [µM] | Structure (SMILES) | also measured
1 | < 1 | < 1 | CC1CCC(n2cnc3c(-c4cnc(N)nc4)nc(N4CCOCC4)nc32)C1 (mixture of isomers) [Compound 37] | IC50 (PC3 cells): ≤ 1 µM
2 | – | – | CO[C@H]1C[C@@H]2CC[C@@H](C)[C@@](O)(O2)C(=O)C(=O)N2CCCC[C@H]2C(=O)O[C@H]([C@H](C)C[C@@H]2CC[C@@H](OC(=O)C(C)(CO)CO)[C@H](OC)C2)CC(=O)[C@H](C)/C=C(\C)[C@@H](O)[C@@H](OC)C(=O)[C@H](C)C[C@H](C)/C=C/C=C/C=C/1C [CCI-779] | IC50 [2]: > 1 µM
3 | < 1 | 1 to 5 | Nc1ncc(-c2nc(N3CCOCC3)nc3c2ncn3Cc2c(F)cccc2F)cn1 [Compound 1] | –
4 | < 1 | < 1 | Nc1ncc(-c2nc(N3CCOCC3)nc3c2ncn3CC2CC2)cn1 [Compound 3] | IC50 (DU145 cells): 1 to 5 µM
5 | < 1 | > 5 | c1ccc(Cn2cnc3c(-c4cncnc4)nc(N4CCOCC4)nc32)cc1 [Compound 4] | –
6 | < 1 | 1 to 5 | CC(COC(C)(C)C)n1cnc2c(-c3cnc(N)nc3)nc(N3CCOCC3)nc21 (stereo not drawn) [Compound 5] | –
7 | < 1 | 1 to 5 | CCC(C)n1cnc2c(-c3cncnc3)nc(N3CCOCC3)nc21 (stereo not drawn) [Compound 6] | –
8 | < 1 | < 1 | Nc1ncc(-c2nc(N3CCOCC3)nc3c2ncn3C2CCCC2)cn1 [Compound 7] | –
9 | < 1 | < 1 | CCC(C)n1cnc2c(-c3cnc(N)nc3OC)nc(N3CCOCC3)nc21 (stereo not drawn) [Compound 8] | –
10 | < 1 | 1 to 5 | CC(c1ccccc1)n1cnc2c(-c3cnc(N)nc3)nc(N3CCOCC3)nc21 (stereo not drawn) [Compound 9] | –
11 | < 1 | < 1 | CC(C1CC1)n1cnc2c(-c3cnc(N)nc3)nc(N3CCOCC3)nc21 (stereo not drawn) [Compound 10] | IC50 (PC3 cells): ≤ 1 µM
12 | < 1 | 1 to 5 | COc1nc(N)ncc1-c1nc(N2CCOCC2)nc2c1ncn2C(C)C1CC1 (stereo not drawn) [Compound 11] | –
13 | < 1 | < 1 | COCC(C)n1cnc2c(-c3cnc(N)nc3)nc(N3CCOCC3)nc21 (stereo not drawn) [Compound 12] | –
14 | < 1 | 1 to 5 | COCC(C)n1cnc2c(-c3cnc(N)nc3OC)nc(N3CCOCC3)nc21 (stereo not drawn) [Compound 13] | –
15 | < 1 | > 5 | CCC(C)n1cnc2c(-c3cnc(N)nc3C)nc(N3CCOCC3)nc21 (stereo not drawn) [Compound 14] | –
16 | < 1 | > 5 | Cc1nc(N)ncc1-c1nc(N2CCOCC2)nc2c1ncn2C(C)C1CC1 (stereo not drawn) [Compound 15] | –
17 | < 1 | > 5 | COCC(C)n1cnc2c(-c3cnc(N)nc3C)nc(N3CCOCC3)nc21 (stereo not drawn) [Compound 16] | –
18 | < 1 | > 5 | Cc1nc(N)ncc1-c1nc(N2CCOCC2)nc2c1ncn2C(C)c1ccccc1 (stereo not drawn) [Compound 17] | –
19 | – | < 1 | Nc1ncc(-c2nc(N3CCOCC3)nc3c2ncn3C2CCOC2)cn1 (stereo not drawn) [Compound 18] | IC50 (PC3 cells): ≤ 1 µM
20 | < 1 | – | Nc1ncc(-c2nc(N3CCOCC3)nc3c2ncn3[C@H]2CCOC2)cn1 [Compound 18] | –
21 | < 1 | < 1 | CC(C)(C)OC(=O)N1CCC(n2cnc3c(-c4cnc(N)nc4)nc(N4CCOCC4)nc32)CC1 [Compound 19] | IC50 (PC3 cells): ≤ 1 µM

Row | IC50 [1] [µM] | IC50 (Truncated mTOR kinase) [µM] | Structure (SMILES) | also measured
22 | < 1 | < 1 | CCC(C)n1cnc2c(-c3cnc(NC)nc3)nc(N3CCOCC3)nc21 (stereo not drawn) [Compound 20] | –
23 | < 1 | < 1 | CCCC(=O)N1CCC(n2cnc3c(-c4cnc(N)nc4)nc(N4CCOCC4)nc32)CC1 [Compound 21] | IC50 (PC3 cells): ≤ 1 µM
24 | < 1 | < 1 | CC(C)C(C)n1cnc2c(-c3cnc(N)nc3)nc(N3CCOCC3)nc21 (stereo not drawn) [Compound 22] | IC50 (PC3 cells): ≤ 1 µM
25 | < 1 | < 1 | CCC(C#N)n1cnc2c(-c3cnc(N)nc3)nc(N3CCOCC3)nc21 (stereo not drawn) [Compound 23] | IC50 (PC3 cells): ≤ 1 µM
26 | < 1 | < 1 | CCC(CC)n1cnc2c(-c3cnc(N)nc3)nc(N3CCOCC3)nc21 [Compound 24] | –
27 | – | – | CC[C@@H](C)n1cnc2c(-c3cnc(N)nc3)nc(N3CCOCC3)nc21 [Compound 25] | IC50 (PC3 cells): ≤ 1 µM
28 | – | – | CCC(C)n1cnc2c(-c3cnc(N)nc3)nc(N3CCOCC3)nc21 (stereo not drawn) [Compound 26] | IC50 (PC3 cells): ≤ 1 µM
29 | < 1 | < 1 | Cc1cccc(-n2cnc3c(-c4cnc(N)nc4)nc(N4CCOCC4)nc32)c1 [Compound 27, 5-(2-morpholin-4-yl-9-m-tolyl-9H-purin-6-yl)-pyrimidin-2-yl-amine] | –
30 | – | 1 to 5 | Nc1ncc(-c2nc(N3CCOCC3)nc3c2ncn3C2CCNC2)cn1 (stereo not drawn) [Compound 28] | –
31 | < 1 | < 1 | CC(C)(C)Cn1cnc2c(-c3cnc(N)nc3)nc(N3CCOCC3)nc21 [Compound 29] | IC50 (PC3 cells): ≤ 1 µM
32 | < 1 | < 1 | Nc1ncc(-c2nc(N3CCOCC3)nc3c2ncn3C2CCc3ccccc3C2)cn1 (stereo not drawn) [Compound 30] | –
33 | < 1 | < 1 | Nc1ncc(-c2nc(N3CCOCC3)nc3c2ncn3C2Cc3ccccc3C2)cn1 [Compound 31] | –
34 | < 1 | < 1 | Nc1ncc(-c2nc(N3CCOCC3)nc3c2ncn3C2CCN(C(=O)c3ccccc3)C2)cn1 (stereo not drawn) [Compound 32] | –
35 | < 1 | < 1 | Cc1ccc(C(=O)N2CCC(n3cnc4c(-c5cnc(N)nc5)nc(N5CCOCC5)nc43)C2)s1 (stereo not drawn) [Compound 33, {3-[6-(2-Amino-pyrimidin-5-yl)-2-morpholin-4-yl-purin-9-yl]-pyrrolidin-1-yl}-(5-methyl-thiophen-2-yl)-methanone] | –
36 | < 1 | 1 to 5 | Nc1ncc(-c2nc(N3CCOCC3)nc3[nH]cnc23)cn1 [Compound 34] | –
37 | – | < 1 | CCC(C)n1cnc2c(-c3cnc(N)nc3)nc(N3CCOCC3C)nc21 (stereo not drawn) [Compound 35] | IC50 (PC3 cells): ≤ 1 µM
38 | < 1 | – | CCC(C)n1cnc2c(-c3cnc(N)nc3)nc(N3CCOC[C@@H]3C)nc21 (stereo partly drawn) [Compound 35] | –
39 | < 1 | < 1 | CC1CCC(n2cnc3c(-c4cnc(N)nc4)nc(N4CCOCC4)nc32)CC1 (stereo not drawn) [Compound 36] | –
40 | < 1 | < 1 | Nc1ncc(-c2nc(N3CCOCC3)nc3c2ncn3-c2ccccc2)cn1 [Compound 38] | –
41 | – | – | CCC(C)n1c(Br)nc2c(-c3cnc(N)nc3)nc(N3CCOCC3)nc21 (stereo not drawn) [Compound 42, 5-(8-Bromo-9-sec-butyl-2-morpholin-4-yl-9H-purin-6-yl)-pyrimidin-2-ylamine] | IC50 (PC3 cells): ≤ 1 µM
42 | – | – | CO[C@H]1C[C@@H]2CC[C@@H](C)[C@@](O)(O2)C(=O)C(=O)N2CCCC[C@H]2C(=O)O[C@H]([C@H](C)C[C@@H]2CC[C@@H](OCCO)[C@H](OC)C2)CC(=O)[C@H](C)/C=C(\C)[C@@H](O)[C@@H](OC)C(=O)[C@H](C)C[C@H](C)/C=C/C=C/C=C/1C [RAD001, 40-O-(2-hydroxyethyl)-rapamycin] | IC50 (human cancer cell lines): 0.005 to 1.8 µM
